The target in this assay is Tyrosine-protein kinase SYK (Homo sapiens) (UniProt P43405). Description: Inhibition of recombinant human full length N-terminal His6-tagged SYK expressed in baculovirus Sf21 insect cells preincubated for 5 mins followed by substrate addition after 30 to 60 mins in presence of ATP by fluorescence assay.

The text below walks through data of BindingDB's records for doi:10.1016/j.bmcl.2017.07.009 (Sichuan University and Collaborative Innovation Center, 2017).

As to `C=CS(=O)(=O)N1CCC[C@@H]1Cn1cc(-c2ccc3c(c2)OCO3)c2c(N)ncnc21`, the IC50 (usually the concentration at which inhibition is half-maximal) was > 10 µM.
